# Test system: Z. mobilis strain 8b
# Conditions: fermentation medium pH 6.0, 30° C., 150 rpm; supplemented with 6 g/L acetamide or 7.2 g/L acetic acid vs unsupplemented control; FIG. 1
# Text: Fermentation medium was composed of 10 g/L yeast extract, 2 g/L KH2PO4, 70 g/L glucose, 40 g/L xylose and 0.1 M MES buffer.
Structure (SMILES),final density / cell yield (as measured by dry cell mass) of Z. mobilis,growth rate of Z. mobilis
CC(N)=O [acetamide],no influence,no influence
CC(=O)O [acetic acid],,reduced growth rate
